# Data taken from patent US20190352297A1, “SELECTIVE AURORA A KINASE INHIBITORS” (UNIVERSITAT BERN, priority 2017, published 2019).
# “Also recorded” adds a separate entry of the source.
# Legend:
# Aurora A kinase domain = biological target: T1, Aurora A kinase domain (Homo sapiens, UniProt O14965); assay: HTRF kinase assay, Aurora A; type: biochemical; conditions: free Aurora A, 20 μM ATP, HTRF; read-out: IC50 Aurora A (biochemical)
# T1 construct: human Aurora A kinase domain (residues 122-403 in the pET24-d vector); His-tag (cleaved yes); made in house; host or cells: E. coli BL21 (DE3) Rosetta
# T1 sequence (O14965 122-403): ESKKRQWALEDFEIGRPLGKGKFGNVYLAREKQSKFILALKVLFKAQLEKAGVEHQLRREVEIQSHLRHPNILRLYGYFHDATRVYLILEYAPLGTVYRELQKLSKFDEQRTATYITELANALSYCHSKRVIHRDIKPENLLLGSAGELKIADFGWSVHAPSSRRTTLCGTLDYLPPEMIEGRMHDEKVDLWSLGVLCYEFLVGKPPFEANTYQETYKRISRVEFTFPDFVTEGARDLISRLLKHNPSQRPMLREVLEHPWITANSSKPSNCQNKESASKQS
# Protocol: The clone of human Aurora A kinase domain (residues 122-403 in the pET24-d vector) was kindly provided by the Montoya laboratory (University of Copenhagen). The construct was transformed into E. coli BL21 (DE3) Rosetta cells and protein expression was induced with 0.5 mM IPTG at 20° C. for 12 hours. The cells were harvested at 6,000×g for 25 min at 4° C. and resuspended in lysis buffer (50 mM Tris-HCl, 500 mM NaCl, 1 mM PMSF, pH=8.0). Disruption of the cells was performed by sonication cooled on ice, after which the debris were removed by centrifugation at 110,000×g for 30 min at 4° C. Aurora A was purified by affinity chromatography using NiNTA resin from Qiagen following the manufacturer's instructions. After loading, the resin was washed with lysis buffer, followed by a second wash with 6% elution buffer (50 mM Tris-HCl, 500 mM NaCl, 500 mM imidazole, pH=8.0). Protein was eluted with 100% elution buffer. The eluate was exchanged into final buffer (20 mM Tris-HCl, 200 mM NaCl, 0.5 mM EDTA, 2 mM DTT, pH=8.0) using a HiPrep 26/10 desalting column (GE Healthcare). The His-tag was cleaved with TEV protease at 4° C. overnight. […] Protein concentration was determined by UV absorbance. […]
# Aurora A and AuroraB kinases were assayed using the homogeneous time-resolved fluorescence (HTRF) KinEASE STK2 kit from Cisbio (France). […] After incubation at room temperature for one hour, fluorescence was measured at 620 nm (europium cryptate) and 665 nm (XL-665) after excitation at 317 nm (lag time 60 μs, integration time 500 μs) using a Tecan Infinite M1000 PRO microplate reader (Greiner 384-well plates, white, non-binding, small volume). The ratio of fluorescence (665 nm/620 nm) was calculated for each well and the results were expressed as follows: specific signal=ratio (sample)−ratio (negative control), where ratio=665 nm/620 nm×10^4. Compounds were measured in threefold serial dilutions at 10 different concentrations, covering the concentration range from no to full inhibition. Each concentration was measured in duplicates, and two independent determinations were made for each IC50 value. […]
# [1] = test system: phospho-Histone H3 Ser10 (Aurora B); assay: Phospho-Histone H3 Ser10 in cells (Aurora B activity); type: cell-based, human
# Protocol: (§1) HeLa Kyoto cells were cultured in high-glucose DMEM with GlutaMAX (Life Technologies) media supplemented with 10% fetal calf serum (FCS) in a humidified 5% CO2 incubator at 37° C. For plasmid transfections, cells were seeded at 80-90% confluence. 4 μg of plasmid DNA in 100 μl OptiMEM and 4 μl of Lipofectamine 2000 (Life Technologies) in 100 μl OptiMEM were incubated in parallel for 5 minutes, mixed for 20 minutes and added to each well. All Aurora A clones were constructed using full-length Aurora A as a template with appropriate PCR primer pairs. […] GFP-Aurora AR137A and GFP-Aurora AW277A were engineered using a site directed mutagenesis kit (Agilent Technologies, no. 210515) with appropriate primers. For determining the mitotic index and the chromosome misalignment phenotype, cells were incubated with various concentrations of compounds for 20 h before analysis. Cells were likewise treated with 0.25 μM MLN8237 (Selleckchem, no. S1133) or 5 μM ZM447439 (Selleckchem, no. S1103). For flow cytometry analysis, 50 nM […] and 2.5 μM ZM447439 were used. For rescue experiments, HeLa Kyoto cells were first transfected with GFP-Aurora A, GFP-Aurora AR137A or GFP-Aurora AW277A for 20 h, followed by incubation with 9 for another 20 h before cells were fixed with cold methanol and stained. To assess the impact of compound 9 on cell cycle progression, DNA content was analyzed after propidium iodide staining using FACS (BD Accuri C6 flow cytometer).
# For immunofluorescence, cells were fixed in cold methanol, washed in PBT (PBS supplemented with 0.05% Tween-20) and stained with the following primary antibodies: 1:200 rabbit anti-pT288 (Cell Signaling, C39D8), 1:200 rabbit anti-pH3S10 (Cell Signaling, D2C8), 1:500 mouse anti-α-tubulin (Transduction Laboratories, 612709), 1:300 mouse anti-GFP (MAB3580, Millipore), 1:200 anti-TPX2 (Santa Cruz Biotechnology, sc-32863), anti-Aurora A (Invitrogen, 458900). Secondary antibodies were anti-mouse conjugated to Alexa488 or Alexa568, as well as anti-rabbit conjugated to Alexa488 or Alexa568, all used at 1:500 (Invitrogen). Confocal images were acquired on a Zeiss LSM 710 confocal microscope equipped with a Axiocam MRm (B/VVW) CCD camera using a 63×NA 1.0 oil objective and processed in ImageJ and Adobe Photoshop, maintaining relative image intensities within a series.
# [2] = test system: Aurora A localization, HeLa Kyoto cells; assay: Aurora A localization at the mitotic spindle (immunofluorescence); type: cell-based, human; conditions: overnight
# Protocol: as §1
# Secondary antibodies were anti-mouse conjugated to Alexa488 or Alexa568, as well as anti-rabbit conjugated to Alexa488 or Alexa568, all used at 1:500 (Invitrogen). Confocal images were acquired on a Zeiss LSM 710 confocal microscope equipped with a Axiocam MRm (B/VVW) CCD camera using a 63×NA 1.0 oil objective and processed in ImageJ and Adobe Photoshop, maintaining relative image intensities within a series.
compound,measurement,setting,value
CCc1ccc(N=C2SC(=Cc3ccnc(Nc4ccc(C(=O)O)cn4)c3)C(=O)N2C)cc1 [Compound 9],IC50,Aurora A kinase domain,2 ± 0.5 nM
same,effect on Aurora B activity in cells,[1],no effect; also recorded: without impairing Aurora B function
same,IC50,"[1]; Aurora B/INCENP, cells, read-out: cellular IC50 (pH3)",> 25000 nM
same,distribution of phospho-Histone H3 Ser10,[1]; treated cells,remained unchanged
same,Aurora A localization at spindle microtubules and centrosomes,[2],notably displaced from the spindle microtubules; also recorded: impairs Aurora A localization at the spindle microtubules
